The NIST ThermoML archive (doi:10.1021/je050052+)

Test: excess molar enthalpy (molar enthalpy of mixing); xn = mol fraction of the nth substance listed
Details: Liquid, Flow calorimetry

COC(=O)OC [dimethyl carbonate] + CO
Details	excess molar enthalpy [kcal/mol]
298.15 K, 1000 kPa, x2 = 0.25	0.2729
298.15 K, 1000 kPa, x2 = 0.3	0.2933
298.15 K, 1000 kPa, x2 = 0.35	0.3075
298.15 K, 1000 kPa, x2 = 0.4	0.315
298.15 K, 1000 kPa, x2 = 0.45	0.3163
298.15 K, 1000 kPa, x2 = 0.5	0.313
298.15 K, 1000 kPa, x2 = 0.55	0.3034
298.15 K, 1000 kPa, x2 = 0.6	0.2901
298.15 K, 1000 kPa, x2 = 0.65	0.2735
298.15 K, 1000 kPa, x2 = 0.7	0.2508
298.15 K, 1000 kPa, x2 = 0.75	0.2229
298.15 K, 1000 kPa, x2 = 0.8	0.1931
313.15 K, 100 kPa, x2 = 0.048	0.0748
313.15 K, 100 kPa, x2 = 0.1	0.1539
313.15 K, 100 kPa, x2 = 0.1492	0.2119
313.15 K, 100 kPa, x2 = 0.2014	0.2621
313.15 K, 100 kPa, x2 = 0.2506	0.2976
313.15 K, 100 kPa, x2 = 0.302	0.3238
313.15 K, 100 kPa, x2 = 0.3503	0.341
313.15 K, 100 kPa, x2 = 0.4001	0.3506
313.15 K, 100 kPa, x2 = 0.451	0.3535
313.15 K, 100 kPa, x2 = 0.4985	0.3472
313.15 K, 100 kPa, x2 = 0.5501	0.3409
313.15 K, 100 kPa, x2 = 0.6014	0.3255
313.15 K, 100 kPa, x2 = 0.6489	0.3073
313.15 K, 100 kPa, x2 = 0.6987	0.2839
313.15 K, 100 kPa, x2 = 0.7499	0.254
313.15 K, 100 kPa, x2 = 0.7992	0.2162
313.15 K, 100 kPa, x2 = 0.851	0.1699
313.15 K, 100 kPa, x2 = 0.95	0.0561
313.15 K, 1000 kPa, x2 = 0.0477	0.08505
313.15 K, 1000 kPa, x2 = 0.0994	0.158
313.15 K, 1000 kPa, x2 = 0.1484	0.2155
313.15 K, 1000 kPa, x2 = 0.2003	0.2637
313.15 K, 1000 kPa, x2 = 0.2493	0.2969
313.15 K, 1000 kPa, x2 = 0.3006	0.3229
313.15 K, 1000 kPa, x2 = 0.3487	0.3403
313.15 K, 1000 kPa, x2 = 0.3985	0.3519
313.15 K, 1000 kPa, x2 = 0.4493	0.3546
313.15 K, 1000 kPa, x2 = 0.5006	0.3496
313.15 K, 1000 kPa, x2 = 0.5485	0.3404
313.15 K, 1000 kPa, x2 = 0.5998	0.3247
313.15 K, 1000 kPa, x2 = 0.6504	0.3053
313.15 K, 1000 kPa, x2 = 0.7001	0.2815
313.15 K, 1000 kPa, x2 = 0.7512	0.2509
313.15 K, 1000 kPa, x2 = 0.8005	0.2149
313.15 K, 1000 kPa, x2 = 0.8501	0.1691
313.15 K, 1000 kPa, x2 = 0.9497	0.0534
313.15 K, 10000 kPa, x2 = 0.0477	0.08818
313.15 K, 10000 kPa, x2 = 0.0994	0.1621
313.15 K, 10000 kPa, x2 = 0.1484	0.2188
313.15 K, 10000 kPa, x2 = 0.2003	0.2659
313.15 K, 10000 kPa, x2 = 0.2493	0.2989
313.15 K, 10000 kPa, x2 = 0.3006	0.3252
313.15 K, 10000 kPa, x2 = 0.3487	0.3416
313.15 K, 10000 kPa, x2 = 0.3985	0.3512
313.15 K, 10000 kPa, x2 = 0.4493	0.3536
313.15 K, 10000 kPa, x2 = 0.5006	0.3509
313.15 K, 10000 kPa, x2 = 0.5485	0.3423
313.15 K, 10000 kPa, x2 = 0.5998	0.3285
313.15 K, 10000 kPa, x2 = 0.6504	0.3088
313.15 K, 10000 kPa, x2 = 0.7001	0.2842
313.15 K, 10000 kPa, x2 = 0.7512	0.2511
313.15 K, 10000 kPa, x2 = 0.8005	0.2158
313.15 K, 10000 kPa, x2 = 0.8501	0.1733
313.15 K, 10000 kPa, x2 = 0.9497	0.0561
328.15 K, 1000 kPa, x2 = 0.05	0.09171
328.15 K, 1000 kPa, x2 = 0.1	0.1733
328.15 K, 1000 kPa, x2 = 0.15	0.2349
328.15 K, 1000 kPa, x2 = 0.2	0.2867
328.15 K, 1000 kPa, x2 = 0.25	0.3264
328.15 K, 1000 kPa, x2 = 0.3	0.3555
328.15 K, 1000 kPa, x2 = 0.35	0.375
328.15 K, 1000 kPa, x2 = 0.4	0.3883
328.15 K, 1000 kPa, x2 = 0.45	0.3934
328.15 K, 1000 kPa, x2 = 0.5	0.3894
328.15 K, 1000 kPa, x2 = 0.55	0.3796
328.15 K, 1000 kPa, x2 = 0.6	0.3638
328.15 K, 1000 kPa, x2 = 0.65	0.3412
328.15 K, 1000 kPa, x2 = 0.7	0.3139
328.15 K, 1000 kPa, x2 = 0.75	0.279
328.15 K, 1000 kPa, x2 = 0.8	0.2383
328.15 K, 1000 kPa, x2 = 0.8509	0.1886
328.15 K, 1000 kPa, x2 = 0.95	0.0625
